Experiments:
[1] = Inhibition of GST-fused HCMV protease expressed in Escherichia coli by scintillation counting; design: species or system Human betaherpesvirus 5
M109 = experiment: Cytotoxicity against mouse M109 cells by XTT assay; format: functional, cell-based

| IC50 [1] | SMILES | IC50 (M109) |
| --- | --- | --- |
| 52 µM | Cc1cc(O)c2cc3c(c(O)c2c1)C(=O)c1ccc([C@@H]2C[C@H](O[C@H]4CC[C@H](O[C@H]5C[C@@H](O[C@H]6CC[C@H](O)[C@H](C)O6)[C@H](O)[C@H](C)O5)[C@H](C)O4)[C@@H](O)[C@@H](C)O2)c(O)c1C3=O | 12 µM |
| 35 µM | Cc1cc(O)c2cc3c(c(O)c2c1)C(=O)c1ccc([C@H]2C[C@@H](O[C@@H]4CC[C@@H](O)[C@@H](C)O4)[C@H](O)[C@@H](C)O2)c(O)c1C3=O [QUANOLIRONE II] | 89 µM |
| 14 µM | Cc1cc(O)c2cc3c(c(O)c2c1)C(=O)c1ccc([C@H]2C[C@@H](O[C@H]4CC[C@H](O[C@H]5C[C@@H](O)[C@H](O)[C@@H](C)O5)[C@H](C)O4)[C@H](O)[C@@H](C)O2)c(O)c1C3=O [QUANOLIRONE I] | 14 µM |
